The values that follow come from US6723710B2, “Compositions for inhibiting arginase activity” (The Trustees of the University of Pennsylvania, priority 1997, dated 2004).

The target of assay [1] is T1, NO synthase (Homo sapiens, UniProt P29475).
T1 construct: purchased Biomol
Description: Nitric Oxide Synthase-ABHA assay (NO2-/NO3- production). Format: biochemical. The note with it: 0.1 millimolar or 1.0 millimolar ABHA. The source says: NADPH, FAD, FMN, L-arginine, N-(2-hydroxyethyl)piperazine-N-2-ethanesulfonic acid (HEPES) (6R)-5,6,7,8-tetrahydro-L-biopterin (BH4), aminoguanidine, CaCl2, and phosphodiesterase cyclic nucleotide activator (calmodulin) were purchased from Sigma Chemical Company (St. Louis, Mo.). Neuronal NO synthase was purchased from Biomol, dialyzed to remove beta-mercaptoethanol, and concentrated to 0.1 milligram per milliliter. The nitric oxide synthase colorimetric assay kit was purchased from Calbiochem. Materials were used without further purification. The effect of ABHA on NO synthesis was assayed by monitoring the sum of NO2^− and NO3^− production, as described (Verdon et al., 1995, Anal. Biochem. 224:502-508). The enzyme solution was shaken at 37° C. for 15 minutes with 50 millimolar HEPES (pH 7.5), 100 micromolar NADPH, 4 micromolar FAD, 4 micromolar FMN, 6 micromolar BH4, 100 micromolar L-arginine, 0.0-1.0 millimolar ABHA, and 0.02 milligram per milliliter NO synthase in a final volume of 100 microliters. For experiments in which neuronal NO synthase was used, 1 millimolar CaCl2 and 100 micrograms per milliliter calmodulin were also added. Reactions were stopped by incubating the reaction mixture at 100° C. for 3 minutes. […] Absorbance at 540 nanometers was used to quantify the extent of NOx production.

Assay [2] concerns the target rectum arginase activity. Description: arginase activity in rectum homogenate. It counts as biochemical, opossum. The source says:
Tissue samples of the opossum internal anal sphincter muscle (IAS), adjoining rectal tissue, liver, and brain were homogenized using an ULTRATURRAX™ tissue homogenizer (Tekamr, Cincinnati, Ohio) in a solution comprising 10 millimolar Tris-HCl, 150 millimolar KCl, and 25 millimolar MnCl2, at pH 7.4. The homogenates were dialyzed overnight against the same solution. Dialyzed homogenates were centrifuged to remove insoluble material and concentrated with Amicon CENTRICON™ 30 microconcentrators to yield stock protein preparations having protein concentrations of 2.4 milligrams per milliliter for IAS smooth muscle, 3.6 milligrams per milliliter for rectal smooth muscle, 3 milligrams per milliliter for brain, and 17.5 milligrams per milliliter for liver. Protein concentrations were estimated with the Pierce Coomassie Protein Reagent kit using bovine serum albumin as a standard.
Arginase activity in tissue homogenates was evaluated using the radioactive L-[guanidino^14C]arginine assay of Rüegg and Russell (1980, Anal. Biochem. 102:206-212). Assays were performed using a solution comprising 100 millimolar CHES-NaOH and 0.1 millimolar MnCl2 at pH 9.0. The reactions were initiated by addition of 5 microliters of tissue homogenate to 45 microliters of reaction mixture that contained the CHES buffer, the appropriate concentration of arginine (0.5 to 5 millimolar) and about 5.0×10^4 counts per minute of L-[guanidino-^14C]arginine. IAS, rectal muscle, and brain homogenates were incubated with the assay mixture at room temperature for one hour, and the liver sample was incubated for 5 minutes. The reactions were stopped by addition of 200 microliters of a stop solution containing 0.25 molar acetic acid, 7 molar urea, and 10 millimolar […] at pH 4.5. Arginase has essentially no activity at the low pH of the stop solution. [^14C] Urea was separated from non-reacted L-[guanidino-^14C]arginine by treatment with 200 μl of 1:1 v/v slurry of DOWEX™ 50W-X8 in water, and quantitated by adding 200 microliters of the supernatant from the DOWEX™ treatment to 3 milliliters of LIQUISCENT™ (National Diagnostics) for liquid scintillation counting in a Beckman LS 5000CE counter. The data were analyzed using double-reciprocal plots of the initial velocity measurements; standard errors were determined by regression analysis.
Assays in the presence of the inhibitors N^ω-hydroxy-L-arginine (1 to 100 micromolar) and ABHA (0.05 to 100 micromolar) were performed as described above. The amino acid D-ornithine served as a control in these experiments, since this amino acid, unlike L-omithine, is not an inhibitor of arginase.

Assay [3] addresses T2, arginase (Rattus norvegicus, UniProt P07824).
T2 sequence (P07824 1-323): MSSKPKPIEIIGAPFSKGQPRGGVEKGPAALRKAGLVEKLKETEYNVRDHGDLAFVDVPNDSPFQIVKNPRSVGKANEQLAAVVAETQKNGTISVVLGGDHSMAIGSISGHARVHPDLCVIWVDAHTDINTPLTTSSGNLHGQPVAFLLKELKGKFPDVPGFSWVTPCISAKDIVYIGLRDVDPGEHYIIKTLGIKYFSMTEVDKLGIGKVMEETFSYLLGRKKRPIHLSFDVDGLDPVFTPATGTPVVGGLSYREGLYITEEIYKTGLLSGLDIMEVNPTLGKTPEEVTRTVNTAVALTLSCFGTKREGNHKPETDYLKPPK
Description: biochemical. The following applies: Kd from competition binding experiments using N-hydroxyarginine, pH 7.5 and pH 9.0.
Description: Additional evidence for high affinity binding of arginase and ABHA was derived from competition binding experiments using ABHA and N-hydroxyarginine, as monitored by fluorescence spectroscopy. Addition of N-hydroxyarginine to a solution of arginase results in a significant decrease in intrinsic protein fluorescence at 327 nanometers.

Assay [4] has as its target T3, rat liver arginase (Rattus norvegicus, UniProt P07824).
T3 sequence (P07824 1-323): T2 sequence (P07824 1-323)
Description: continuous chromogenic arginase assay with substrate 1-nitro-3-guanidinobenzene (compound 18). It counts as biochemical. Also noted: made in house. The note with it: 2 millimolar compound 18 as substrate; pseudo-turnover number, smaller = better inhibition. The procedure:
The activity of wild-type arginase was monitored spectrophotometrically using a Pharmacia BIOTECH ULTROSPEC™ 2000. Assays were performed in a solution comprising 100 micromolar MnCl2 and 50 millimolar bicine-NaOH (pH 9.0). […] Eadie-Hofstee plots were used to analyze the data.

Assay [5] concerns the target T3, rat liver arginase. Description: [14C-guanidino]-arginine arginase activity assay (Example 2). Format: biochemical. The following applies: 100 millimolar CHES, pH 9.0, 1 millimolar arginine; read-out: IC50 for inhibition of arginase. The procedure:
Arginase activity was assessed using the ^(14C-guanidino)-arginine assay of Rüegg et al. (1980, Anal. Biochem. 102:206-212), as described (Reczkowski et al., 1994, Arch. Biochem. Biophys. 312:31-37). […] […] et al., 1994, Biochem. Biophys. Res.

Each structure is given as a SMILES string. Entries after “also recorded” stand apart in the source; their conditions may differ. Where only a bound is given, the exact number is not on record here.

T1 sequence (P29475 whole entry): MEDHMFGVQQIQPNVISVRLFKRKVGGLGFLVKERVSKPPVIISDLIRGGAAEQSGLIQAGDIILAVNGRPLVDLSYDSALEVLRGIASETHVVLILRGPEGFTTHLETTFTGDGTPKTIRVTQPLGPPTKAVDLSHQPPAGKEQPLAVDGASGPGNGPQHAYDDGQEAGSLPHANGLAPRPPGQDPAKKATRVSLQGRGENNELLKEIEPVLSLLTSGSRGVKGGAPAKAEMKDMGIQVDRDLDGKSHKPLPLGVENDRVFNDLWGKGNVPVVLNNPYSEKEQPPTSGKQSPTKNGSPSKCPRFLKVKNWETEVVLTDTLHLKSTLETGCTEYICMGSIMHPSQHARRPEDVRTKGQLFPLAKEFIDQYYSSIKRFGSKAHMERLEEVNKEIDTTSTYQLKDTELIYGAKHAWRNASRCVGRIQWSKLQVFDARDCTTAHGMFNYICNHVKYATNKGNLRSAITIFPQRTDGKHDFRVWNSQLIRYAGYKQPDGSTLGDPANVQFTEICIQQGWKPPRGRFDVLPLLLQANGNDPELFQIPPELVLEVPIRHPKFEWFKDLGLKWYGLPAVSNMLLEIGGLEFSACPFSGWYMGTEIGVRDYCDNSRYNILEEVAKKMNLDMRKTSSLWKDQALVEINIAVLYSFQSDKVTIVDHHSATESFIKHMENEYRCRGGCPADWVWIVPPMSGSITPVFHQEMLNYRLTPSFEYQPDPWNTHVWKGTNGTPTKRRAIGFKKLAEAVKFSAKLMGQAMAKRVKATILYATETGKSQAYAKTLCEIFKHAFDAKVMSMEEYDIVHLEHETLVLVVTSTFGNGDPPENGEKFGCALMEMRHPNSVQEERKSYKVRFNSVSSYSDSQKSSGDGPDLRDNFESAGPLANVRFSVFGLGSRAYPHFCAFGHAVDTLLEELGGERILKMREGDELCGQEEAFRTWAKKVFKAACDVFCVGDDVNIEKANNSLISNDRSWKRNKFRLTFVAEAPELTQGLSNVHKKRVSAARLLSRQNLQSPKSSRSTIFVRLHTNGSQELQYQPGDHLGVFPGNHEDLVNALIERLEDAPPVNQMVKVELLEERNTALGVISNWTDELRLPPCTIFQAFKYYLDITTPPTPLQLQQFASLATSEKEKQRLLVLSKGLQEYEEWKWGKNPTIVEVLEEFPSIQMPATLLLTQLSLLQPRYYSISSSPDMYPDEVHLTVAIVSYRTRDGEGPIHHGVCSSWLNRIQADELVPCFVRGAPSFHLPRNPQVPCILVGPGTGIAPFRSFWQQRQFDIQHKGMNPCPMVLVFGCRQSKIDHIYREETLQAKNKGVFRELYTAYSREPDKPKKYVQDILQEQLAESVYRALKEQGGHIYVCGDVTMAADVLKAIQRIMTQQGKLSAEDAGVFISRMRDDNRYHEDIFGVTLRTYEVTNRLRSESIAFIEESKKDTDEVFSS

Regarding `N[C@@H](CCCCB(O)O)C(=O)O` [compound 7, 2(S)-amino-6-boronohexanoic acid], the “inhibition of NO synthase” value in assay [1] is on record as “does not inhibit NO synthase; also recorded: no inhibition”. Further, the inhibition constant Ki in assay [2] (arginine fixed at Km, assuming competitive inhibition, read-out: estimated Ki, rectum arginase activity) was 26 nM. In addition, the “times more potent than L-HO-Arg, rectum” value in assay [2] (rectum homogenate) is recorded as 840 times. For the same compound, the IC50 in assay [2] (rectum, read-out: IC50 for inhibition of arginase activity, rectum homogenate) worked out at 50 nM; in assay [5], 800 nM. Further, in assay [3], the equilibrium dissociation constant (Kd) was no more than 100 nM. Further, the “tnpseudo (moles of inhibitor/mole of arginase)” value in assay [4] is given as 0.7 ± 0.1 moles of inhibitor/mole of arginase.
